9 molecules from patent US20220265834A1, “BCL-2 PROTEIN INHIBITORS” (Recurium IP Holdings, LLC, priority 2019, published 2022) can be followed below.

Type in all cases: cell-based
One assay deals with MOLT-4 cells. Nature of the assay: MOLT-4 Cell Proliferation Assay (CellTiter-Glo Luminescent Cell Viability Assay). The following applies: Homo sapiens, 72 h incubation, read-out: MOLT-4 (nM) CTG IC50. On the procedure:
Cell proliferation was measured using the CellTiter-Glo® Luminescent Cell Viability Assay. The assay involved the addition of a single reagent (CellTiter-Glo® Reagent) directly to cells cultured in serum-supplemented medium. MOLT-4 cells (ATCC, CRL-1582) were cultured according to ATCC recommendations and were seeded at 50,000 cells per well.
Each compound evaluated was prepared as a DMSO stock solution (10 mM). Compounds were tested in duplicate on each plate, with a 10-point serial dilution curve (1:3 dilution). The highest compound concentration was 10 μM (final), with a 0.1% final DMSO concentration. Plates were then incubated at 37° C., 5% CO2 for 72 h, cell plates were equilibrated at rt for approximately 30 mins. An equi-volume amount of CellTiter-Glo® Reagent (100 μL) was added to each well. Plates were mixed for 2 mins on an orbital shaker to induce cell lysis and then incubated at rt for 10 mins to stabilize the luminescent signal. Luminescence was recorded using a Envision plate reader according to CellTiter-Glo protocol. IC50 of each compound was calculated using GraphPad Prism by nonlinear regression analysis.

In assay [1] the target is T1, Bcl-xL (Homo sapiens, UniProt Q07817). Nature of the assay: Protein degradation assay in MOLM-13 cells (Western blot). Conditions: for Bcl-xL degradation in MOLM-13 cells: increasing concentrations, 24 hours, FIG. 6; for Bcl-xL degradation with proteasome inhibitor MG132 in MOLM-13 cells: pretreated with 1 μM MG132 for 1 hour, then 1 μM compound, FIG. 7. On the procedure:
(§1) MOLT-4 (ATCC, CRL-1582) (FIGS. 4, 5) were incubated with vehicle or 100 nM concentrations of the indicated compounds for 16 hours. MOLM-13 (DSMZ, ACC554) (FIG. 6,7) cells were incubated with vehicle or increasing concentrations of the indicated compound for 24 hours. For proteasome inhibition, MOLM-13 cells were pretreated with 1 μM of MG132 for 1 hour before the addition of 1 μM of the indicated compounds. After treatment, the cells were harvested in RIPA lysis buffer supplemented with 1% Phosphatase Inhibitor and Protease Inhibitor Cocktail. An equal amount of protein (10 μg/lane) from each cell extract was resolved on a 4-12% Bis-Tris gel. Proteins were transferred using iBlot 2 Transfer Stacks. The membranes were blocked with 5% nonfat milk in TBS-T buffer (50 mM Tris-HCL, pH 7.6; 150 mM NaCl; and 0.05% Tween) and probed with primary antibodies (1:1000 dilution) overnight at 4° C. After three washes with TBS-T (10 min/wash), the membranes were incubated with an appropriate peroxidase-conjugated secondary antibody (Cell Signaling Technology, USA) for 1 hour at rt. After three washes with TBS-T, the proteins of interest were detected with ECL Western Blotting Detection Reagents and captured with an Azure imaging system. The band intensities were determined using ImageJ software and normalized to loading control β-actin or GAPDH. The primary antibodies Bcl-xL (#2762), Bcl-2 (#2872s), Mcl-1 (#5453s) and β-actin (13E5, #4970), and GAPDH (#5174) were purchased from Cell Signaling Technology.

For assay [2], the target named is T1, Bcl-xL. Kind of assay: Protein degradation assay in MOLT-4 cells (Western blot). Set-up: host or cells: MOLT-4. The following applies: 100 nM compound, 16 hours, FIGS. 4 and 5. As for the experimental part:
as §1

Each structure is given as a SMILES string.

T1 sequence (Q07817 whole entry): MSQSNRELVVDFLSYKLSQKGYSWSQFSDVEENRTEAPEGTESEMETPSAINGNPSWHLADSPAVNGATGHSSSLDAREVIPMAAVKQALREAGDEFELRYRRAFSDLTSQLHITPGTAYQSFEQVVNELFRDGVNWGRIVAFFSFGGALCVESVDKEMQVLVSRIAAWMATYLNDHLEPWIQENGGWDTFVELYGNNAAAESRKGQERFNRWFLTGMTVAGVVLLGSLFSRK

For `CC1(C)CCC(c2ccc(Cl)cc2)=C(CN2CCN(c3ccc(C(=O)NS(=O)(=O)c4ccc(N[C@H](CCN5CCOCC5)CSc5ccccc5)c(S(=O)(=O)C(F)(F)F)c4)cc3)CC2)C1` [ABT-263, reference compound], the IC50 in the assay with MOLT-4 cells was in the range of 100 to 200 nM.

As to `CC1(C)CCC(CN2CCN(c3ccc(C(=O)NS(=O)(=O)c4ccc(N[C@H](CCN5CCN(C(=O)NCCOCCOCCNc6cccc7c6C(=O)N(C6CCC(=O)NC6=O)C7=O)CC5)CSc5ccccc5)c(S(=O)(=O)C(F)(F)F)c4)cc3)CC2)=C(C23CC(C(F)F)(C2)C3)C1` (stereo partly drawn) [Example 1, 4-((R)-3-((4-(N-(4-(4-((2-(3-(difluoromethyl)bicyclo[1.1.1]pentan-1-yl)-4,4-dimethylcyclohex-1-en-1-yl)methyl)piperazin-1-yl)benzoyl)sulfamoyl)-2-((trifluoromethyl)sulfonyl)phenyl)amino)-4-(phenylthio)butyl)-N-(2-(2-(2-((2-(2,6-dioxopiperidin-3-yl)-1,3-dioxoisoindolin-4-yl)amino)ethoxy)ethoxy)ethyl)piperazine-1-carboxamide], the IC50 in the assay on MOLT-4 cells was no less than 200 nM.

For the molecule `CC1(C)CCC(CN2CCN(c3ccc(C(=O)NS(=O)(=O)c4ccc(N[C@H](CCN5CCN(CCOCCNc6cccc7c6C(=O)N(C6CCC(=O)NC6=O)C7=O)CC5)CSc5ccccc5)c(S(=O)(=O)C(F)(F)F)c4)cc3)CC2)=C(C23CC(C(F)F)(C2)C3)C1` (stereo partly drawn) [Example 2, 4-(4-((2-(3-(Difluoromethyl)bicyclo[1.1.1]pentan-1-yl)-4,4-dimethylcyclohex-1-en-1-yl)methyl)piperazin-1-yl)-N-((4-(((2R)-4-(4-(2-(2-((2-(2,6-dioxopiperidin-3-yl)-1,3-dioxoisoindolin-4-yl)amino)ethoxy)ethyl)piperazin-1-yl)-1-(phenylthio)butan-2-yl)amino)-3-((trifluoromethyl)sulfonyl)phenyl)sulfonyl)benzamide], in the assay with MOLT-4 cells, the IC50 was no more than 100 nM. On Bcl-xL [1], the “Bcl-xL degradation in MOLM-13 cells” value was “can induce Bcl-xL degradation in MOLM-13 cells in a dose dependent manner” and the “Bcl-xL degradation with proteasome inhibitor MG132 in MOLM-13 cells” value is “can be inhibited by proteasome inhibitor MG132”. Besides, the “Bcl-xL degradation in MOLT-4 cells” value at Bcl-xL [2] is recorded as “induce Bcl-xL degradation”.

Take `CC1(C)CCC(CN2CCN(c3ccc(C(=O)NS(=O)(=O)c4ccc(N[C@H](CCN5CCN(CCOCCOCCNc6cccc7c6C(=O)N(C6CCC(=O)NC6=O)C7=O)CC5)CSc5ccccc5)c(S(=O)(=O)C(F)(F)F)c4)cc3)CC2)=C(C23CC(C(F)F)(C2)C3)C1` (stereo partly shown) [Example 3]: on Bcl-xL [1], the “Bcl-xL degradation in MOLM-13 cells” value is reported as “can induce Bcl-xL degradation in MOLM-13 cells in a dose dependent manner” and the “Bcl-xL degradation with proteasome inhibitor MG132 in MOLM-13 cells” value was “can be inhibited by proteasome inhibitor MG132”.

Take `CC1(C)CCC(CN2CCN(c3ccc(C(=O)NS(=O)(=O)c4ccc(N[C@H](CCN5CCN(CCOCCOCCOCCNc6cccc7c6C(=O)N(C6CCC(=O)NC6=O)C7=O)CC5)CSc5ccccc5)c(S(=O)(=O)C(F)(F)F)c4)cc3)CC2)=C(C23CC(C(F)F)(C2)C3)C1` (stereo partly drawn) [Example 4, 4-(4-((2-(3-(difluoromethyl)bicyclo[1.1.1]pentan-1-yl)-4,4-dimethylcyclohex-1-en-1-yl)methyl)piperazin-1-yl)-N-((4-(((2R)-4-(4-(2-(2-(2-(2-((2-(2,6-dioxopiperidin-3-yl)-1,3-dioxoisoindolin-4-yl)amino)ethoxy)ethoxy)ethoxy)ethyl)piperazin-1-yl)-1-(phenylthio)butan-2-yl)amino)-3-((trifluoromethyl)sulfonyl)phenyl)sulfonyl)benzamide]: the IC50 in the assay on MOLT-4 cells is no more than 100 nM. Also, the “Bcl-xL degradation with proteasome inhibitor MG132 in MOLM-13 cells” value on Bcl-xL [1] was “can be inhibited by proteasome inhibitor MG132”. In addition, the “Bcl-xL degradation in MOLT-4 cells” value on Bcl-xL [2] was “induce Bcl-xL degradation”.

With `CC1(C)CCC(CN2CCN(c3ccc(C(=O)NS(=O)(=O)c4ccc(N[C@H](CCN5CCC(C(=O)NCCOCCOCCNc6cccc7c6C(=O)N(C6CCC(=O)NC6=O)C7=O)CC5)CSc5ccccc5)c(S(=O)(=O)C(F)(F)F)c4)cc3)CC2)=C(C23CC(C(F)F)(C2)C3)C1` (stereo partly drawn) [Example 5, 1-((R)-3-((4-(N-(4-(4-((2-(3-(difluoromethyl)bicyclo[1.1.1]pentan-1-yl)-4,4-dimethylcyclohex-1-en-1-yl)methyl)piperazin-1-yl)benzoyl)sulfamoyl)-2-((trifluoromethyl)sulfonyl)phenyl)amino)-4-(phenylthio)butyl)-N-(2-(2-(2-((2-(2,6-dioxopiperidin-3-yl)-1,3-dioxoisoindolin-4-yl)amino)ethoxy)ethoxy)ethyl)piperidine-4-carboxamide], the IC50 with MOLT-4 cells was 100 to 200 nM. Moreover, the “Bcl-xL degradation in MOLT-4 cells” value on Bcl-xL [2] is “induce Bcl-xL degradation”.

With `CC1(C)CCC(CN2CCN(c3ccc(C(=O)NS(=O)(=O)c4ccc(N[C@H](CCN5CCN(CCOCCNc6ccc7c(c6)C(=O)N(C6CCC(=O)NC6=O)C7=O)CC5)CSc5ccccc5)c(S(=O)(=O)C(F)(F)F)c4)cc3)CC2)=C(C23CC(C(F)F)(C2)C3)C1` (stereo partly drawn) [Example 6, 4-(4-((2-(3-(Difluoromethyl)bicyclo[1.1.1]pentan-1-yl)-4,4-dimethylcyclohex-1-en-1-yl)methyl)piperazin-1-yl)-N-((4-(((2R)-4-(4-(2-(2-((2-(2,6-dioxopiperidin-3-yl)-1,3-dioxoisoindolin-5-yl)amino)ethoxy)ethyl)piperazin-1-yl)-1-(phenylthio)butan-2-yl)amino)-3-((trifluoromethyl)sulfonyl)phenyl)sulfonyl)benzamide], the IC50 with MOLT-4 cells was no more than 100 nM. Besides, the “Bcl-xL degradation in MOLT-4 cells” value at Bcl-xL [2] is “induce Bcl-xL degradation”.

As to `CC1(C)CCC(CN2CCN(c3ccc(C(=O)NS(=O)(=O)c4ccc(N[C@H](CCN5CCN(CCOCCNc6cccc7c6C(=O)N(C6CCC(=O)NC6=O)C7=O)CC5)CSc5ccccc5)c(S(=O)(=O)C(F)(F)F)c4)cc3)CC2)=C(C23CC(C)(C2)C3)C1` (stereo partly drawn) [Example 9, 4-(4-((4,4-Dimethyl-2-(3-methylbicyclo[1.1.1]pentan-1-yl)cyclohex-1-en-1-yl)methyl)piperazin-1-yl)-N-((4-(((2R)-4-(4-(2-(2-((2-(2,6-dioxopiperidin-3-yl)-1,3-dioxoisoindolin-4-yl)amino)ethoxy)ethyl)piperazin-1-yl)-1-(phenylthio)butan-2-yl)amino)-3-((trifluoromethyl)sulfonyl)phenyl)sulfonyl)benzamide], in the assay with MOLT-4 cells, the IC50 is no more than 100 nM. Besides, the “Bcl-xL degradation in MOLT-4 cells” value on Bcl-xL [2] is given as “induce Bcl-xL degradation”.

For the molecule `CC1(C)CCC(CN2CCN(c3ccc(C(=O)NS(=O)(=O)c4ccc(N[C@H](CCN5CCN(CCOCCOCCOCCNc6cccc7c6C(=O)N(C6CCC(=O)NC6=O)C7=O)CC5)CSc5ccccc5)c(S(=O)(=O)C(F)(F)F)c4)cc3)CC2)=C(C23CC(C)(C2)C3)C1` (stereo partly drawn) [Example 10, 4-(4-((4,4-dimethyl-2-(3-methylbicyclo[1.1.1]pentan-1-yl)cyclohex-1-en-1-yl)methyl)piperazin-1-yl)-N-((4-(((2R)-4-(4-(2-(2-(2-(2-((2-(2,6-dioxopiperidin-3-yl)-1,3-dioxoisoindolin-4-yl)amino)ethoxy)ethoxy)ethoxy)ethyl)piperazin-1-yl)-1-(phenylthio)butan-2-yl)amino)-3-((trifluoromethyl)sulfonyl)phenyl)sulfonyl)benzamide], in the assay on MOLT-4 cells, the IC50 was no more than 100 nM. At Bcl-xL [2], the “Bcl-xL degradation in MOLT-4 cells” value is “induce Bcl-xL degradation”.
